ChEMBL document CHEMBL1201862, “PubChem BioAssay data set” (2004)
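How tested: cells in 96-well plates exposed to compound for 48 hours at five concentrations. At the GI50, growth is halved.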 The source made the active and inactive calls. Cut-off read from the data, not from the text of the source: active = GI50 up to about 1.1 µM and inactive = higher.

Legend:
Experiment in all cases: NCI tumour cell line growth inhibition, 48 h
786-0 = tested on: 786-0
A498 = tested on: A498
A549 = tested on: A549
ACHN = tested on: ACHN
CAKI-1 = tested on: CAKI-1
CCRF-CEM = tested on: CCRF-CEM
COLO 205 = tested on: COLO 205
DU-145 = tested on: DU-145
EKVX = tested on: EKVX
HCC 2998 = tested on: HCC 2998
HCT-116 = tested on: HCT-116
HCT-15 = tested on: HCT-15
HL-60 = tested on: HL-60
HOP-62 = tested on: HOP-62
HOP-92 = tested on: HOP-92
HT-29 = tested on: HT-29
Hs-578T = tested on: Hs-578T
IGROV-1 = tested on: IGROV-1
K562 = tested on: K562
KM12 = tested on: KM12
LOX IMVI = tested on: LOX IMVI
M14 = tested on: M14
MCF7 = tested on: MCF7
MDA-MB-231 = tested on: MDA-MB-231
MDA-MB-435 = tested on: MDA-MB-435
MDA-N = tested on: MDA-N
MOLT-4 = tested on: MOLT-4
Malme-3M = tested on: Malme-3M
NCI-H226 = tested on: NCI-H226
NCI-H23 = tested on: NCI-H23
NCI-H460 = tested on: NCI-H460
NCI-H522 = tested on: NCI-H522
NCI/ADR-RES = tested on: NCI/ADR-RES
OVCAR-3 = tested on: OVCAR-3
OVCAR-4 = tested on: OVCAR-4
OVCAR-5 = tested on: OVCAR-5
OVCAR-8 = tested on: OVCAR-8
PC-3 = tested on: PC-3
RPMI-8226 = tested on: RPMI-8226
RXF 393 = tested on: RXF 393
SF-268 = tested on: SF-268
SF-295 = tested on: SF-295
SF-539 = tested on: SF-539
SK-MEL-28 = tested on: SK-MEL-28
SK-MEL-2 = tested on: SK-MEL-2
SK-MEL-5 = tested on: SK-MEL-5
SK-OV-3 = tested on: SK-OV-3
SN12C = tested on: SN12C
SNB-19 = tested on: SNB-19
SNB-75 = tested on: SNB-75
SR = tested on: SR
SW-620 = tested on: SW-620
T47D = tested on: T47D
TK-10 = tested on: TK-10
U-251 = tested on: U-251
UACC-257 = tested on: UACC-257
UO-31 = tested on: UO-31

Cc1ccc(S(=O)(=O)N/C(=C\C=C\c2ccccc2)C(=O)C(C)(C)C)cc1
GI50 (786-0): 27.5 µM (inactive) | GI50 (A498): 89.5 µM (inactive) | GI50 (A549): 46.5 µM (inactive) | GI50 (ACHN): 58.5 µM (inactive) | GI50 (CAKI-1): > 100 µM (inactive) | GI50 (CCRF-CEM): > 100 µM (inactive) | GI50 (COLO 205): > 100 µM (inactive) | GI50 (DU-145): > 100 µM (inactive) | GI50 (EKVX): > 100 µM (inactive) | GI50 (HCC 2998): > 100 µM (inactive) | GI50 (HCT-116): > 100 µM (inactive) | GI50 (HCT-15): > 100 µM | GI50 (HL-60): > 100 µM (inactive) | GI50 (HOP-62): 19.5 µM (inactive) | GI50 (HOP-92): 22.7 µM (inactive) | GI50 (HT-29): > 100 µM (inactive) | GI50 (Hs-578T): 35.1 µM (inactive) | GI50 (IGROV-1): 50.5 µM (inactive) | GI50 (K562): > 100 µM (inactive) | GI50 (KM12): > 100 µM (inactive) | GI50 (LOX IMVI): > 100 µM (inactive) | GI50 (M14): > 100 µM (inactive) | GI50 (MCF7): 73.1 µM (inactive) | GI50 (MDA-MB-231): 29.9 µM (inactive) | GI50 (MDA-MB-435): > 100 µM (inactive) | GI50 (MDA-N): > 100 µM (inactive) | GI50 (MOLT-4): > 100 µM (inactive) | GI50 (Malme-3M): > 100 µM (inactive) | GI50 (NCI-H226): > 100 µM (inactive) | GI50 (NCI-H23): 59.4 µM (inactive) | GI50 (NCI-H460): > 100 µM (inactive) | GI50 (NCI-H522): 59 µM (inactive) | GI50 (NCI/ADR-RES): 42.3 µM (inactive) | GI50 (OVCAR-3): > 100 µM (inactive) | GI50 (OVCAR-4): 35.2 µM (inactive) | GI50 (OVCAR-5): > 100 µM (inactive) | GI50 (OVCAR-8): 51.4 µM (inactive) | GI50 (PC-3): 75.2 µM (inactive) | GI50 (RPMI-8226): 0.492 µM (active) | GI50 (RXF 393): 37.8 µM (inactive) | GI50 (SF-268): 46.2 µM (inactive) | GI50 (SF-295): 75 µM (inactive) | GI50 (SF-539): 37.9 µM (inactive) | GI50 (SK-MEL-28): > 100 µM (inactive) | GI50 (SK-MEL-2): > 100 µM (inactive) | GI50 (SK-MEL-5): 56 µM (inactive) | GI50 (SK-OV-3): 38.6 µM (inactive) | GI50 (SN12C): > 100 µM (inactive) | GI50 (SNB-19): 55.5 µM (inactive) | GI50 (SNB-75): 56.2 µM (inactive) | GI50 (SR): > 100 µM (inactive) | GI50 (SW-620): > 100 µM (inactive) | GI50 (T47D): 85.1 µM (inactive) | GI50 (TK-10): > 100 µM (inactive) | GI50 (U-251): 63.1 µM (inactive) | GI50 (UACC-257): 45.5 µM (inactive) | GI50 (UO-31): > 100 µM (inactive)
